Assays:
[1] = system: LNCaP, PC-3M and DU-145 cell lines; assay: Paracellular permeability (PCP), TRITC-dextran diffusion; format: cell-based; settings: 50 nM CT
Procedure: For PCP measurements, cells were grown to confluence on Transwell filters. Tetra methyl rhodamine-dextran (1 mg/ml, ˜4 kDa, Sigma) was added to the upper chamber. Fluorescence of the lower chamber medium was measured in Modulus Microplate Reader (Turner Biosystems) at various time intervals.
Whether CT produces similar effects in LNCaP, PC-3M and DU-145 cell lines, which endogenously express CTR, was examined as shown in FIG. 1A. FIGS. 9A-9B depict the effect of CT on tight junction (TJ) disruption as measured using TER and PCP in the three prostate cancer cell lines—LNCaP, PC-3M, and DU-145. Cells were serum-starved for 4 hours, then treated with and without 50 nM CT, before measuring TER as described above. In FIG. 9B, cells were treated with and without 50 nM CT, and PCP determined by diffusion of ˜4 kDa TRITC-conjugated dextran from the upper to the lower chamber in one hour. The results are expressed as μg/ml/hour of TRITC-Dextran diffused ±SEM (n=6; *p<0.05 (−CT v +CT, One way ANOVA and Newman-Keul's test)). FIG. 9C depicts effects of CT on cell invasion in the same three cell lines—PC-3M, LNCaP, and DU145. Cells were added to upper insert of invasion chambers with or without 50 nM CT, and cells that passed through the Matrigel™ barrier were counted after 48 h. The results are expressed as mean number of invaded cells per 400× field ±SEM (n=6; *p<0.05).

CTR-ZO-1 interaction = molecular target: T1, CTR-ZO-1 interaction (Homo sapiens, UniProt P30988, E471A/S472A/S473A); assay: CTR-ZO-1 co-immunoprecipitation; format: cell-based; settings: all CT concentrations
T1 construct: PCR generated full length CTRwt and CTRΔESS cDNAs were cloned directionally into pcDNA3.1 mammalian expression vector; FLAG (N); expressed in transfected cells; host or cells: PC-31 / PC-3 cells stably expressing FLAG-CTRwt; ZO-1 is the cells' own
T1 sequence (P30988 with tags, fused parts or gaps): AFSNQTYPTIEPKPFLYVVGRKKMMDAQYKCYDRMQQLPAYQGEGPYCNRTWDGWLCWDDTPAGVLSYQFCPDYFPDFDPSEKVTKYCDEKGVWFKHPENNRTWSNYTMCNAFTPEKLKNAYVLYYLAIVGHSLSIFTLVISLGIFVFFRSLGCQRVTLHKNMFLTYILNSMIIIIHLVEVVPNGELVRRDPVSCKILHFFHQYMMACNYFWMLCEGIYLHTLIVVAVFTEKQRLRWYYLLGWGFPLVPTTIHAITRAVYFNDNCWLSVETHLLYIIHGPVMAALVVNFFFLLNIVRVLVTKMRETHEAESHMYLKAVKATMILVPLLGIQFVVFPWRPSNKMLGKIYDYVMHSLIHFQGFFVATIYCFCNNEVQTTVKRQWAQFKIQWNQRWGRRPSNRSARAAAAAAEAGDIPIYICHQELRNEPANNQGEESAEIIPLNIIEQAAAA
Procedure: Serum-starved PC-31-V, PC-31-CTRwt or PC-31-CTRΔESS cells (2×10^6 per 100 mm dish) were stimulated with or without 50 nM CT for 3 min, washed, and lysed in the IP buffer as previously described (von Zastrow et al., 1994). CTR in normalized lysate proteins was immunoprecipitated with anti-FLAG EZ-view beads (Sigma Chemical Co., St. Louis, Mo.), and eluted with FLAG peptide (600 μg/ml in PBS). CTR immunoprecipitates were processed for ZO-1 immunoblotting. To control for protein loading and transfer, the blots were stripped and reprobed with immunoprecipitating antibody.
PC-31 cells stably expressing either FLAG-CTRwt or FLAGCTRΔESS were treated with or without CT for 3 min. The analysis of FLAG-CTR IPs confirmed that only FLAG-CTRwt, but not FLAG-CTRΔESS, co-precipitated ZO-1 (FIG. 3B). […] The effect of multiple CT concentrations on CTR-ZO-1 co-precipitation was tested in PC-3 cells. […] However, co-precipitation of ZO-1 by CTRwt was strong in PC-3 cells stimulated with 10 nM CT, and was even stronger in the cells receiving 100 nM CT.
As shown above, CTR binds to ZO-1 through PDZ interaction (i.e. PDZ ligand on C-tail of CTR binds to the PDZ domain of ZO-1). To attenuate this binding, ZO-1 was saturated with a small C-terminal peptide of CTR sequence containing the PDZ-binding motif. Since ZO-1 is an intracellular membrane protein, the interfering peptide was delivered inside the plasma membrane. It has been shown that trans-activating transcriptional activator (TAT) protein (86-mer polypeptide) from HIV-1 enters mammalian cells when added to the surrounding media (Frankel et al., 1988; Green et al., 1989). Certain small regions of such proteins (10-16-mers) called protein transduction domains (PTDs), also efficiently traverse biological membranes (Elliott et al., 1997). Therefore, a fusion peptide Pep 1 was synthesized of TAT-peptide sequences of HIV virus and CTR-C(N-[…]-C (SEQ ID NO:2), CTR-C sequence underlined). The first experiment was to see if Pep I binds to ZO-1 in reversible fashion. For this, amino acid Y in Pep I was labeled with ^125I, and the binding with ZO-1 analyzed in the presence/absence of unlabeled Pep I (1000×; 20 μM). PC-3CTR-ZO-1-MYC cells were first incubated with unlabeled Pep I or control peptide (20 μM) for 5 min. The cells were then incubated with ^125I-pep I or C for 25 min. The cells were then washed in IP buffer, treated with DSP, and lysed. ZO-1 IPs were obtained, fractionated on SDS-PAGE, and autoradiographed. […] Next, whether Pep I competes with CTR for ZO-1 binding was tested. For this, PC-3-CTR-wt cells were treated with CT (50 nM) and or Pep I (50 μM) for 15 min. The CTR IPs were then immunoblotted and probed for ZO-1 immunoreactivity. […] Next, the biological impact of this phenomenon was examined by testing the effect of Pep I on CTR-stimulated invasion.

calcitonin [CT]
PCP [1]: increased PCP | co-precipitation of ZO-1 by CTRΔESS (CTR-ZO-1 interaction): not co-precipitated
